Source: paper PMC7889890, “Structure of photosystem I-LHCI-LHCII from the green alga Chlamydomonas reinhardtii in State 2” (Nature Communications, 2021)

T1: PsaL (Chlamydomonas reinhardtii, UniProt A8IL32)
T1 construct: gene CHLRE_12g486300v5; mature PSI core subunit within native PSI-LHCI-LHCII supercomplex purified from state 2 thylakoids
T1 sequence (A8IL32 36-196): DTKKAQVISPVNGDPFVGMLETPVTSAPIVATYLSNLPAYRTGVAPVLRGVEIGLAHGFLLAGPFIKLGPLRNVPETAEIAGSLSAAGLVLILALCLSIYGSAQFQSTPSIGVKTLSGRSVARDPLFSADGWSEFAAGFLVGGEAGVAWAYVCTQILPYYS

T2: PsaH (Chlamydomonas reinhardtii, UniProt P13352)
T2 construct: mature PSI core subunit within native PSI-LHCI-LHCII supercomplex purified from state 2 thylakoids
T2 sequence (P13352 31-130): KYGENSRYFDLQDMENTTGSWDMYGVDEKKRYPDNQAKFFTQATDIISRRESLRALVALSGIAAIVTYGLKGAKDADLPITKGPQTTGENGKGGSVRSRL

T3: PsaD (Chlamydomonas reinhardtii (endogenous …, UniProt Q39615 36-196))
T3 construct: PSI core subunit PsaD of C. reinhardtii; source: endogenous, C. reinhardtii CC-137 cells in state 2; thylakoid membranes solubilised with α-DDM, PSI-LHCI-LHCII purified (sucrose density gradient, gel filtration)
T3 sequence (looked up): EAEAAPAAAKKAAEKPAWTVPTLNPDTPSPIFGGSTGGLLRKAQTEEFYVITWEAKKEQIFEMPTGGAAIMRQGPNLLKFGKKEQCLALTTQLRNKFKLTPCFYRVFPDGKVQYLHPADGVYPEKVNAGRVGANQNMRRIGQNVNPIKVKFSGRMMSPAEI

B1: PsaH (natural protein, UniProt P13352 31-130, looked up)
chain: T2 sequence (P13352 31-130)
notes: PSI core subunit PsaH of C. reinhardtii; also called Cr-PsaH; source: endogenous, C. reinhardtii CC-137 cells in state 2; thylakoid membranes solubilised with α-DDM, PSI-LHCI-LHCII purified (sucrose density gradient, gel filtration)

Assays:
[1] = target: T4, PsaA (Chlamydomonas reinhardtii, UniProt P12154); assay type: binding; conditions: Bcr850; native supercomplex
T4 construct: PSI core subunit within native PSI-LHCI-LHCII supercomplex purified from state 2 thylakoids
T4 sequence (P12154 whole entry): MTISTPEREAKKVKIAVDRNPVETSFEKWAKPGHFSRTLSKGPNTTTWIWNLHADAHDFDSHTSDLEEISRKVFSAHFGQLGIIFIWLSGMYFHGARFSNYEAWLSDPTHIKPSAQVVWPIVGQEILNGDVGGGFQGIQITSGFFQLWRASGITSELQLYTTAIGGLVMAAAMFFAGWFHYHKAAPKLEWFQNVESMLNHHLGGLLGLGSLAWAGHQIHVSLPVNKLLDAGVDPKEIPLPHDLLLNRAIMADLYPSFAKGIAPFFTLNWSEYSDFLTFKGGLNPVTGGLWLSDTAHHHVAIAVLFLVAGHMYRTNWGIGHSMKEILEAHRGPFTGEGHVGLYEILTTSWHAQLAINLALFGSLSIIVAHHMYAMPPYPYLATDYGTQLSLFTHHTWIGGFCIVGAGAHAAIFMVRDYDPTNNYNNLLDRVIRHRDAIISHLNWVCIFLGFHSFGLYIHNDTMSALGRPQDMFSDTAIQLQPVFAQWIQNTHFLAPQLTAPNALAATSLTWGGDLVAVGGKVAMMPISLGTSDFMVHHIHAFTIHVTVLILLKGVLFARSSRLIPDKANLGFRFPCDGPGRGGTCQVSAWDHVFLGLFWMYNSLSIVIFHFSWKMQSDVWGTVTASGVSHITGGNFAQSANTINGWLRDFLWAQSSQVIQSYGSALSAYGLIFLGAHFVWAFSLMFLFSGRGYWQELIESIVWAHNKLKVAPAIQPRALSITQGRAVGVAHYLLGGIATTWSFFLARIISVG

[2] = target: T1, PsaL; assay type: binding; conditions: Bcr201, Bcr205, Bcr206; native supercomplex
[3] = target: T2, PsaH; assay type: binding; conditions: Bcr204; native supercomplex
[4] = target: T3, PsaD; assay: cryo-EM structure; single-particle cryo-EM of the PSI-LHCI-LHCII supercomplex purified from state 2 cells; 3.42 Å overall; 10 mM Hepes-KOH pH 7.5, 50 mM NaCl, 1 mM NaN3, 10 mM NaF, 0.01% α-DDM; conditions: both partners purified

Molecule	cryo-EM structure, 3.42 Å [1]	cryo-EM structure, 3.42 Å [2]	cryo-EM structure, 3.42 Å [3]	binding result [4]
CC1=C(/C=C/C(C)=C/C=C/C(C)=C/C=C/C=C(C)/C=C/C=C(C)/C=C/C2=C(C)CCCC2(C)C)C(C)(C)CCC1 [BCR]	Bcr850 of PsaA interacts with helix A of PsaO	three BCRs (Bcr201, Bcr205 and Bcr206) were observed in the green algal PsaL	one BCR (Bcr204) were found to bind to PsaH in the present structure	
B1				binds
